These results are taken from ChEMBL document CHEMBL5506038, “Discovery of LC-MI-3: A Potent and Orally Bioavailable Degrader of Interleukin-1 Receptor-Associated Kinase 4 for the Treatment of Inflammatory Diseases” (J Med Chem, 2024).

The term pIC50 denotes the IC50 on a negative log10 scale, so that one unit is a factor of ten. What is called DC50 is the concentration at which degradation of the target reaches its halfway point. Broadly, the inhibition is the relative decrease from the control value, in per cent.

Data set [1] concerns the target T1, Interleukin-1 receptor-associated kinase 4 (Homo sapiens, UniProt Q9NWZ3).
T1 sequence (Q9NWZ3 whole entry): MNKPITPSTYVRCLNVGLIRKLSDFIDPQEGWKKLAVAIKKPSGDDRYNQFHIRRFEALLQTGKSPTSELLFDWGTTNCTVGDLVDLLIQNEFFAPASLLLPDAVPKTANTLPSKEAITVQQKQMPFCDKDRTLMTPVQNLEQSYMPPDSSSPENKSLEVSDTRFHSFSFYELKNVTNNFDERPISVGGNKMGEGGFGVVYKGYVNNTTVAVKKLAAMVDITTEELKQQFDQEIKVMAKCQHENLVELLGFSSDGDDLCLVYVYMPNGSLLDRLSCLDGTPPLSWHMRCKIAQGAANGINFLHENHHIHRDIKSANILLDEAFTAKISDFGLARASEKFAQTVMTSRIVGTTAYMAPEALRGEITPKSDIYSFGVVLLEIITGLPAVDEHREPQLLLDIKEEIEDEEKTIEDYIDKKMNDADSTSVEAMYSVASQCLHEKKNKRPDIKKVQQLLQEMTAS
The experiment in a line: (§1) Inhibition of IRAK4 (unknown origin).

Data set [2] has as its target Protein cereblon/Interleukin-1 receptor-associated kinase 4 (Mus musculus) (UniProt Q8C7D2+Q8R4K2). The data set can be described thus: PROTAC activity at IRAK4/CRBN in mouse BaF3 cells assessed as reduction in IRAK4 level at 100 nM incubated for 12 hrs by Western blot analysis relative to control. The data set is classed as cell-based. The arrangement: scale not given: the % may be the effect or the level left. For orientation: A western blot detects proteins with antibodies after separation by electrophoresis.

In data set [3] the target is Protein cereblon/Interleukin-1 receptor-associated kinase 4 (Homo sapiens, UniProt Q9NWZ3+Q96SW2). The experiment in a line: PROTAC activity at IRAK4/CRBN in HEK293T cells assessed as induction of IRAK4 degradation by immunoblotting analysis. It is filed as cell-based.
The target in data set [4] is T2, Interleukin-1 receptor-associated kinase 4 (Homo sapiens) (UniProt Q9NWZ3).
T2 sequence (whole entry): T1 sequence (Q9NWZ3 whole entry)
The description is as §1.

A short description of data set [5]: Drug metabolism in rat hepatocyte assessed as amide hydrolysis-mediated metabolite formation by LC-MS/MS analysis. It is filed as ADME, cell-based. The settings on record: hepatocytes.
In data set [6] the target is Interleukin-1 receptor-associated kinase 1 (Homo sapiens) (UniProt P51617). The data set can be described thus: Inhibition of IRAK1 (unknown origin) at 1 uM relative to control.
The target in data set [7] is T3, Interleukin-1 receptor-associated kinase 4 (Mus musculus) (UniProt Q8R4K2).
T3 sequence (whole entry): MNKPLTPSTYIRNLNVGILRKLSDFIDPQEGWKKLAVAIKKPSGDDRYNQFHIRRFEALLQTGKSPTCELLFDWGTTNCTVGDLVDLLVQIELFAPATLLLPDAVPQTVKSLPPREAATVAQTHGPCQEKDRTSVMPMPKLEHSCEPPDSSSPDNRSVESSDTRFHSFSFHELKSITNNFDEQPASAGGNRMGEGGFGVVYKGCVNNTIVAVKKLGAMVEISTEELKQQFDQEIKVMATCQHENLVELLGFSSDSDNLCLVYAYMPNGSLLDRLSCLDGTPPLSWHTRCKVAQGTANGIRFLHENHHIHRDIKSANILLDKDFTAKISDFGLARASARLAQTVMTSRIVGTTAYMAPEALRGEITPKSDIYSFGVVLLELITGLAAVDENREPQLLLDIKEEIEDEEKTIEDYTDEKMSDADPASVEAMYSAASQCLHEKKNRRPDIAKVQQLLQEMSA
The experiment in a line: Inhibition of IRAK4 in LPS-induced mouse RAW264.7 cells assessed as reduction in JNK level at 1 to 5 uM pretreated with LPS for 1 hr followed by compound administration and measured after 2 hrs by Western blotting analysis. It is filed as cell-based. The settings on record: dose 1-5 µM.

Data set [8] concerns the target Dual specificity mitogen-activated protein kinase kinase 5 (Homo sapiens) (UniProt Q13163). The data set can be described thus: Inhibition of MEK5 (unknown origin) at 1 uM relative to control.
Data set [9] has as its system RAW264.7. The experiment in a line: Activation of NF-kappaB pathway in LPS-induced mouse RAW264.7 cells at 5 uM pretreated with compound for 1 hr followed by LPS-induction and measured after 6 hrs by flow cytometry analysis. The data set is classed as cell-based. The settings on record: filed as activator, time 7.0 hrs. Background: In flow cytometry, cells or beads pass a laser one at a time.

A further data set deals with Mus musculus. The experiment in a line: Anti-inflammatory activity against LPS-induced acute […] injury C57BL/6 mouse model assessed as reduction in ERK level at 20 mg/kg, IG pretreated with compound for 12 hrs followed by LPS-induction and measured after 6 hrs. The data set is classed as functional, organism-based. To be noted: time 18.0 hrs.
The target in data set [10] is T3, Interleukin-1 receptor-associated kinase 4 (Mus musculus). The experiment in a line: Inhibition of IRAK4 in LPS-induced mouse RAW264.7 cells assessed as effect on IkappaB-alpha level at 1 to 5 uM pretreated with LPS for 1 hr followed by compound administration and measured after 2 hrs by Western blotting analysis. It is filed as cell-based. The settings on record: dose 1-5 µM.

The target in data set [11] is TRAF2 and NCK-interacting protein kinase (Homo sapiens) (UniProt Q9UKE5). The data set can be described thus: Inhibition of TNIK (unknown origin) at 1 uM relative to control.
Data set [12] concerns the target T3, Interleukin-1 receptor-associated kinase 4 (Mus musculus). The data set can be described thus: Inhibition of IRAK4 in LPS-induced mouse RAW264.7 cells assessed as reduction in p38 level at 1 to 5 uM pretreated with LPS for 1 hr followed by compound administration and measured after 2 hrs by Western blotting analysis. To be noted: dose 1-5 µM. It is filed as cell-based.

Data set [13] has as its target Mitogen-activated protein kinase kinase kinase kinase 4 (Homo sapiens) (UniProt O95819). The data set can be described thus: Inhibition of MAP4K4 (unknown origin) at 1 uM relative to control.
Data set [14] has as its target T3, Interleukin-1 receptor-associated kinase 4 (Mus musculus). The data set can be described thus: Inhibition of IRAK4 in LPS-induced mouse RAW264.7 cells assessed as reduction in ERK level at 1 to 5 uM pretreated with LPS for 1 hr followed by compound administration and measured after 2 hrs by Western blotting analysis. The settings on record: dose 1-5 µM. The data set is classed as cell-based.

In data set [15] the target is Tyrosine-protein kinase JAK3 (Homo sapiens) (UniProt P52333). The experiment in a line: Inhibition of JAK3 (unknown origin) at 1 uM relative to control.
Data set [16] has as its target Mitogen-activated protein kinase kinase kinase 19 (Homo sapiens) (UniProt Q56UN5). The experiment in a line: Inhibition of YSK4 (unknown origin) at 1 uM relative to control.
The target of data set [17] is T3, Interleukin-1 receptor-associated kinase 4 (Mus musculus). The experiment in a line: Inhibition of IRAK4 in LPS-induced mouse RAW264.7 cells assessed as reduction in p65 nuclear translocation at 1 to 5 uM pretreated with LPS for 1 hr followed by compound administration and measured after 2 hrs by immunofluorescence analysis. It is filed as cell-based. To be noted: dose 1-5 µM.

In data set [18] the target is Tyrosine-protein kinase JAK1 (Homo sapiens) (UniProt P23458). The data set can be described thus: Inhibition of JAK1 (unknown origin) at 1 uM relative to control.
The target of data set [19] is MAP kinase p38 (Mus musculus) (UniProt P47811+O08911+Q9WUI1+Q9Z1B7). The data set can be described thus: Inhibition of MAPK phosphorylation in LPS-induced mouse RAW264.7 cells at 1 uM pretreated with compound for 1 hr followed by LPS-induction and measured after 2 hrs by Western blot analysis. The data set is classed as cell-based. The settings on record: time 3.0 hrs.

Data set [20] has as its system RAW264.7. The experiment in a line: Activation of NF-kappaB pathway in LPS-induced mouse RAW264.7 cells expressing EGFP at 5 uM pretreated with compound for 1 hr followed by LPS-induction and measured at 15 min by flow cytometry analysis. The data set is classed as cell-based. The settings on record: filed as activator, time 75.0 min.
Data set [21] has as its target Serine/threonine-protein kinase RIO3 (Homo sapiens) (UniProt O14730). The data set can be described thus: Inhibition of RIOK3 (unknown origin) at 1 uM relative to control.
In data set [22] the target is Citron Rho-interacting kinase (Homo sapiens) (UniProt O14578). The experiment in a line: Inhibition of CIT (unknown origin) at 1 uM relative to control.
Data set [23] concerns RAW264.7. The experiment in a line: Activation of NF-kappaB pathway in LPS-induced mouse RAW264.7 cells expressing EGFP at 5 uM pretreated with compound for 1 hr followed by LPS-induction and measured after 6 hrs by flow cytometry analysis. To be noted: filed as activator, time 7.0 hrs. It is filed as cell-based.
For data set [24], the target named is Serine/threonine-protein kinase RIO1 (Homo sapiens) (UniProt Q9BRS2). The data set can be described thus: Inhibition of RIOK1 (unknown origin) at 1 uM relative to control.

pIC50: −log10 of the molar value. Active and inactive are the calls of the source. No cut-off for these calls is given here.

Sequence of Protein cereblon/Interleukin-1 receptor-associated kinase 4 (Mus musculus) (Q8C7D2 whole entry, looked up, one chain of several): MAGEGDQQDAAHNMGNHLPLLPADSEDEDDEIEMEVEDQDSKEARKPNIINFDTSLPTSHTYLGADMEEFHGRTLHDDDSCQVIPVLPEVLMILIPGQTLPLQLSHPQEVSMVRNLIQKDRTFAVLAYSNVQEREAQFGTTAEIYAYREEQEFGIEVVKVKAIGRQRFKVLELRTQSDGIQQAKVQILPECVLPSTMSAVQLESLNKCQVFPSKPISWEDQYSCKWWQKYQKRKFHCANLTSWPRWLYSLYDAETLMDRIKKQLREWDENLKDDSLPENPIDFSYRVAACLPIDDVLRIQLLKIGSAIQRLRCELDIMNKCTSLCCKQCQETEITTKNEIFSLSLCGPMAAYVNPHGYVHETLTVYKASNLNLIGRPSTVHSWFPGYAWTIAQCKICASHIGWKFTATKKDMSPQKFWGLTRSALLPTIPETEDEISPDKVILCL
Sequence of Protein cereblon/Interleukin-1 receptor-associated kinase 4 (Q96SW2 whole entry, one chain of several): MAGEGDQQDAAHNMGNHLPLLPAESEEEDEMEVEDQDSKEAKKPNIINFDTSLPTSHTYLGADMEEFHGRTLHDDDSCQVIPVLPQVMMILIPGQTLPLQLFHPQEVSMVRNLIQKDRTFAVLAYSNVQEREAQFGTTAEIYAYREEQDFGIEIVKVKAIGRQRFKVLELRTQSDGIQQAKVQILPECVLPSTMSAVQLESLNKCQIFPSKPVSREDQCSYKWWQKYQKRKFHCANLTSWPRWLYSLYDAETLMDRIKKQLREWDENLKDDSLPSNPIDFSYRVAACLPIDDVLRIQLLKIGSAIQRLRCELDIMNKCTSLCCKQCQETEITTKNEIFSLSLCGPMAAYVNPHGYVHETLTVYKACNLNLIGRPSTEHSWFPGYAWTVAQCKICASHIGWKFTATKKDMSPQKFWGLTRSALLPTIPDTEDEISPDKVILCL
Sequence of TRAF2 and NCK-interacting protein kinase (Homo sapiens) (Q9UKE5 whole entry, looked up): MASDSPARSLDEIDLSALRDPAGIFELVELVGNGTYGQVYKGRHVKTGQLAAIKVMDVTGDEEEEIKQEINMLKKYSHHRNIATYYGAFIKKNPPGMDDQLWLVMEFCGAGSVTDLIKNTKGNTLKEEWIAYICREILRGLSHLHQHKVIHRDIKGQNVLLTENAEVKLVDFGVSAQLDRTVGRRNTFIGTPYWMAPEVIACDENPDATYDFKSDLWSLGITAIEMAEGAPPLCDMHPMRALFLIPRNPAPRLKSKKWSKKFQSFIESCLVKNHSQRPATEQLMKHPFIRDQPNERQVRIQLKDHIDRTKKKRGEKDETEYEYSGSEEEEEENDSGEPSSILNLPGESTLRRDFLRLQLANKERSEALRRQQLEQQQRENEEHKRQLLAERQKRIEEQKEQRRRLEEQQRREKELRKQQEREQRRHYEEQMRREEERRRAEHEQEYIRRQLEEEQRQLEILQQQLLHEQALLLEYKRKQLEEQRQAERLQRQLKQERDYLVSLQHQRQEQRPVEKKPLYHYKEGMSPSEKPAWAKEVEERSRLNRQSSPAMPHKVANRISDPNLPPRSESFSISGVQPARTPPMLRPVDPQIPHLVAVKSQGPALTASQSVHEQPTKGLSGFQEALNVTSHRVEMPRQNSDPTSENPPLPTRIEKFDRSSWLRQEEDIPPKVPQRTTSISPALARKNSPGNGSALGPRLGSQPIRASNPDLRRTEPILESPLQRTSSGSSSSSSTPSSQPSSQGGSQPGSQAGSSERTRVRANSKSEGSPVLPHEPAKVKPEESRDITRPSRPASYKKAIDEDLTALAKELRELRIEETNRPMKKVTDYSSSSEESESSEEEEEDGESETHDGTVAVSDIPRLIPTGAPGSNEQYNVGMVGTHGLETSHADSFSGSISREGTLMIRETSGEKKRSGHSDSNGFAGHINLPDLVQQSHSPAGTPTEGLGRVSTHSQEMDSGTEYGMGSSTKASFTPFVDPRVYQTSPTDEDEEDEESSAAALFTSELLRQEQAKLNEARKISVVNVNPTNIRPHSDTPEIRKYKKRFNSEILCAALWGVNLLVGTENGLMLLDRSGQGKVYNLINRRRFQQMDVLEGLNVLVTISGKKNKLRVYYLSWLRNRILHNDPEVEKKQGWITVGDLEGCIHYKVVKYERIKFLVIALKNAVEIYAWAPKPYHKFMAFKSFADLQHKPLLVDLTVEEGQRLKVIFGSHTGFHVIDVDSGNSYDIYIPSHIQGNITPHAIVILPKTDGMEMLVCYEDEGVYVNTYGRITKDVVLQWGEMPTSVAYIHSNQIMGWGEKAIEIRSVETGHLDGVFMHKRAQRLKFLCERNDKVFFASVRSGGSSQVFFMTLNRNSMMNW
Sequence of Serine/threonine-protein kinase RIO3 (Homo sapiens) (O14730 whole entry): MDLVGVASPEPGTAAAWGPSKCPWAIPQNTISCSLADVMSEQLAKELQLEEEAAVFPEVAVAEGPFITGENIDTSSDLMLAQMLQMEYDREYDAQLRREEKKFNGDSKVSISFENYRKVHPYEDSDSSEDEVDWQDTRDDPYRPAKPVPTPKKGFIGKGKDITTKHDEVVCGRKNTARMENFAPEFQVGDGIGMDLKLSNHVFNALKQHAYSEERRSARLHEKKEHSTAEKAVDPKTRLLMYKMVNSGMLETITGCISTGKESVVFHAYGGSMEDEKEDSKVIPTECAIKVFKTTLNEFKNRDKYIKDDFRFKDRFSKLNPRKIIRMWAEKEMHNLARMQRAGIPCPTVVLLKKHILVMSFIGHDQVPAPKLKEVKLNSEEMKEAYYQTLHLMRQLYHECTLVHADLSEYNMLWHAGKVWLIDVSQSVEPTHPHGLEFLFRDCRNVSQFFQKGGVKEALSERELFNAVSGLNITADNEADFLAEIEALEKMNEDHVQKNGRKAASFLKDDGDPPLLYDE
Sequence of Serine/threonine-protein kinase RIO1 (Homo sapiens) (Q9BRS2 whole entry): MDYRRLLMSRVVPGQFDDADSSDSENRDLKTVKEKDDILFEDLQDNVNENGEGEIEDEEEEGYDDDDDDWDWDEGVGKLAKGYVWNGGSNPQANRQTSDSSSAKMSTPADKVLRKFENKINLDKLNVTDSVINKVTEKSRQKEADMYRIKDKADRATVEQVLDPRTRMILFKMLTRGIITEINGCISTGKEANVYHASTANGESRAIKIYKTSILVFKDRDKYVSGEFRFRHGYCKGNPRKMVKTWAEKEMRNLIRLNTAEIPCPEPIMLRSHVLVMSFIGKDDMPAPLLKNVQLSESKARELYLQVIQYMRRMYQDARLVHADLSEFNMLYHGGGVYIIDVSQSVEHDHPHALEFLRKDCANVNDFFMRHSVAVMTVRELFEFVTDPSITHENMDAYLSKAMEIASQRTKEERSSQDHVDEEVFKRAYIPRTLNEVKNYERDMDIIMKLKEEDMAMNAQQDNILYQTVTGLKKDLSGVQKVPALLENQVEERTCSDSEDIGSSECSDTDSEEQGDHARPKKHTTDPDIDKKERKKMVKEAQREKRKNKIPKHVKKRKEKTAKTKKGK
Sequence of Interleukin-1 receptor-associated kinase 1 (Homo sapiens) (P51617 whole entry, looked up): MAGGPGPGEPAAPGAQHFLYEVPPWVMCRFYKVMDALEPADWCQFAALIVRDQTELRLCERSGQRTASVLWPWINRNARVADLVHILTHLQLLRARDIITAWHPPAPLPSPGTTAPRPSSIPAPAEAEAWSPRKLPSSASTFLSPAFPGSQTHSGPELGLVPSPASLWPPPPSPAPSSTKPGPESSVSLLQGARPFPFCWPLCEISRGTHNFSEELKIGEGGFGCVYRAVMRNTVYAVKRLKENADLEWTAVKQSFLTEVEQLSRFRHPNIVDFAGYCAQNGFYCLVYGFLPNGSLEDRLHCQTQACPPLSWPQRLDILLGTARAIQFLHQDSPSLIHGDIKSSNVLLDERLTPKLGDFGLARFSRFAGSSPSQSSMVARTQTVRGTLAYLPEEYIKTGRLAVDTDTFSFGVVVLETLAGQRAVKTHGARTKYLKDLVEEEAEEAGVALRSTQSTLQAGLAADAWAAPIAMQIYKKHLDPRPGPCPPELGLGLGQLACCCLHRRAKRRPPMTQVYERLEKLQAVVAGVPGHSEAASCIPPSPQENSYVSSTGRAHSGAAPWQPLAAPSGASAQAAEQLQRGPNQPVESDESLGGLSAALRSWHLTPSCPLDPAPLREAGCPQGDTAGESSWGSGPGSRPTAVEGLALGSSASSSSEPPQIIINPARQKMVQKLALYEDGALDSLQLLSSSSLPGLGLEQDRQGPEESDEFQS
Sequence of Dual specificity mitogen-activated protein kinase kinase 5 (Homo sapiens) (Q13163 whole entry): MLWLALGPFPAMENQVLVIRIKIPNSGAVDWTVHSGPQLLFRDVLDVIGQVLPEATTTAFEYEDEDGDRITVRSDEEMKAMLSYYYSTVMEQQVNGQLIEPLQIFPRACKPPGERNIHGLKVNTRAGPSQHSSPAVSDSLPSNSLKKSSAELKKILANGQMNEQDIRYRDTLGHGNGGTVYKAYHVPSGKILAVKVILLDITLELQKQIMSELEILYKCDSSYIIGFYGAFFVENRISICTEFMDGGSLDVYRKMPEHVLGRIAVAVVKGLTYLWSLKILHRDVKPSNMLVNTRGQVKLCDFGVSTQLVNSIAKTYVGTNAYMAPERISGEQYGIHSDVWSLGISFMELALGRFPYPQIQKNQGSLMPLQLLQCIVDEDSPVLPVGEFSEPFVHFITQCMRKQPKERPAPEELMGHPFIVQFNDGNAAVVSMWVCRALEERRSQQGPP

Consider `COc1cc(N2CCN(C(=O)CCCCCNc3cccc4c3C(=O)N(C3CCC(=O)NC3=O)C4=O)CC2)ccc1NC(=O)c1cccc(-c2ccn[nH]2)n1` (stereo not given), for which the negative logarithm of the IC50 (pIC50) in data set [1] was over 7.00. Further, in data set [2], the Activity is 55%.

Turning to `CC(C)Nc1cc(-n2ccc3cc(C#N)cnc32)ncc1C(=O)NC1CCC(C(=O)NCCOCCNC(=O)COc2cccc3c2C(=O)N(C2CCC(=O)NC2=O)C3=O)CC1` (stereo not given), the half-maximal degradation concentration (DC50) in [3] amounted to 405 nM.

`COc1cc(N2CCN(C(=O)C3CN(c4ccc5c(c4)C(=O)N(C4CCC(=O)NC4=O)C5=O)C3)CC2)ccc1NC(=O)c1cccc(-c2ccn[nH]2)n1` (stereo not given) gave a pIC50 in data set [1] of over 7.00. Further, the Activity in data set [2] came out at 26%.

On to `COc1cc(N2CCN(CC(=O)NCCOCCOCCNC(=O)C3CCN(c4ccc5c(c4)C(=O)N(C4CCC(=O)NC4=O)C5=O)CC3)CC2)ccc1NC(=O)c1cccc(-c2ccn[nH]2)n1` (stereo not given), for which the inhibition entry in [4] was “inactive”.

For the compound `COc1cc(N2CCN(CC(=O)NCCNc3cccc4c3C(=O)N(C3CCC(=O)NC3=O)C4=O)CC2)ccc1NC(=O)c1cccc(-c2ccn[nH]2)n1` (stereo not given), the pIC50 in data set [1] was over 7.00. For the same compound, in [2], the Activity was found to be 63%.

Take `COc1cc(N2CCN(CC(=O)NCCOCCOCCNc3cccc4c3C(=O)N(C3CCC(=O)NC3=O)C4=O)CC2)ccc1NC(=O)c1cccc(-c2ccn[nH]2)n1` (stereo not given): in [5], the Drug metabolism result is listed as “Metabolite_Detected”.

With `COc1cc(N2CCN(CC(=O)NCCCCCCCCNc3cccc4c3C(=O)N(C3CCC(=O)NC3=O)C4=O)CC2)ccc1NC(=O)c1cccc(-c2ccn[nH]2)n1` (stereo not given), in data set [4], the inhibition result was “inactive”.

For the compound `COc1cc(N2CCN(C(=O)C3CCN(c4ccc5c(c4)C(=O)N(C4CCC(=O)NC4=O)C5=O)CC3)CC2)ccc1NC(=O)c1cccc(-c2ccn[nH]2)n1` (stereo not given), the inhibition entry in data set [4] is “inactive”.

As to `COc1cc(N2CCN(CC(=O)NCCOCCOCCOCCOCCNc3cccc4c3C(=O)N(C3CCC(=O)NC3=O)C4=O)CC2)ccc1NC(=O)c1cccc(-c2ccn[nH]2)n1` (stereo not given), the inhibition entry in [4] is “inactive”.

Consider `COc1cc(N2CCN(C(=O)CCCCCCCCCCCNc3cccc4c3C(=O)N(C3CCC(=O)NC3=O)C4=O)CC2)ccc1NC(=O)c1cccc(-c2ccn[nH]2)n1` (stereo not given), for which the pIC50 in [1] was over 7.00. Further, the Activity in data set [2] came to 32%.

For `COc1cc(N2CCOCC2)ccc1NC(=O)c1cccc(-c2ccn[nH]2)n1`, the inhibition in [6] and in [21] was over 95% throughout. The inhibition result in data set [7], in data set [10], in data set [12], in data set [14], in data set [17] and in [19] was “Active” in each case. Also, the inhibition result in data set [8], in data set [11], in data set [13], in [15], in data set [16] and in data set [18] was “inactive” each time. The inhibition result in data set [22] and in [24] was “inactive” each time. Moreover, the result with RAW264.7 [9], in the data set with Mus musculus, with RAW264.7 [20] and in the data set on RAW264.7 [23] was Active. Further, the Activity in [2] was determined as 100%.
